Target: Cbl-b protein (CBL-B, GST-Tag) (Homo sapiens (Human), UniProt Q13191)
Assay: HTRF based binding assay, affinity to Cbl-b protein
Conditions: not given

Cbl-b protein (CBL-B, GST-Tag), sequence (Q13191 whole entry): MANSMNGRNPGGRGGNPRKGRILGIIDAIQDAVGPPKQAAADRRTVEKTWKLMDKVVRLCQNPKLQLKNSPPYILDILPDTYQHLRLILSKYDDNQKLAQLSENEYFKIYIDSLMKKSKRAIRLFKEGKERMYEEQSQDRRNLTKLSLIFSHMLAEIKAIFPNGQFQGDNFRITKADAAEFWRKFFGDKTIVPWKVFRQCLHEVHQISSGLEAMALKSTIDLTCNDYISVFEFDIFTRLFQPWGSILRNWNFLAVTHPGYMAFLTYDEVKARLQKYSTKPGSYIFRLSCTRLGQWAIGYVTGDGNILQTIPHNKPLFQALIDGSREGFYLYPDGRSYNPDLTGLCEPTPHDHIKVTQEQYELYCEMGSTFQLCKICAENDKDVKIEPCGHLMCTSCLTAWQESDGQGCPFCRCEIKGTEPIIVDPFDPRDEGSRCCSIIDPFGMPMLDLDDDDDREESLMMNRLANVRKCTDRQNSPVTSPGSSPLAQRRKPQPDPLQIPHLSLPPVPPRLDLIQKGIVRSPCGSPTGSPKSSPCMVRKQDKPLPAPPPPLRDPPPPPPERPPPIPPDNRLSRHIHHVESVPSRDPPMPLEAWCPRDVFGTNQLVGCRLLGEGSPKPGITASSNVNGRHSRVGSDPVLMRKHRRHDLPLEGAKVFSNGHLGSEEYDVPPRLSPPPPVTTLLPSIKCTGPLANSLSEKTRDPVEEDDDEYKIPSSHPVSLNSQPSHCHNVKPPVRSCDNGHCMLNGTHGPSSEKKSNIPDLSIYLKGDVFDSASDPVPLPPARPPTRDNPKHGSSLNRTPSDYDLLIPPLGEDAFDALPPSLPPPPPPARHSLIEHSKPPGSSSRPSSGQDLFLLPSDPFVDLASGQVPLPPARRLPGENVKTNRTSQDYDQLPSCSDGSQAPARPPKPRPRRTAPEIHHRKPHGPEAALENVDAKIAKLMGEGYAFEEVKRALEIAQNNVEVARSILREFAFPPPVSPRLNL

Compound | IC50
CC1CC(c2cccc(NC(=O)c3cc(CN4CCC[C@H](C)C4)cc(C(F)(F)F)c3)c2)(c2nncn2C)C1 (stereo partly drawn) [Example 30] | 20 to 50 nM
CC1CC(c2cccc(-n3nc(C(F)(F)F)c4ccc(CN5CCC[C@H](C)C5)cc4c3=O)c2)(c2nncn2C)C1 (stereo partly drawn) [Example 9] | 50 to 500 nM
C[C@H]1CCCN(Cc2cc3c(=O)n(-c4cc([C@]5(c6nncn6C)C[C@@H](C)C5)cc(OCF)n4)cnc3cn2)C1 [Example 99] | < 20 nM
Cn1cnnc1[C@]1(c2cccc(-n3cc4c(C(F)(F)F)cc(CN5CCC[C@H](OC(F)F)C5)cc4n3)c2)C[C@H](C)C1 [Example 74] | 50 to 500 nM
C[C@H]1CCCN(Cc2cc(C(F)(F)F)c3cn(-c4cccc([C@]5(c6nncn6C)C[C@@H](OC(F)(F)F)C5)c4)nc3c2)C1 [Example 92] | 50 to 500 nM
Cn1cnnc1[C@]1(c2ccnc(-n3ncc4c(C(F)(F)F)cc(CN5CCCC6(CC6)C5)cc4c3=O)c2)C[C@H](C)C1 [Example 37] | 50 to 500 nM
CC1CC(c2cccc(N3CCc4c(cc(CN5CC[C@H](F)C5)cc4C(F)(F)F)C3=O)c2)(c2nncn2C)C1 (stereo partly drawn) [Example 1, (S)-7-((3-fluoropyrrolidin-1-yl)methyl)-2-(3-(3-methyl-1-(4-methyl-4H-1,2,4-triazol-3-yl)cyclobutyl)phenyl)-5-(trifluoromethyl)-3,4-dihydroisoquinolin-1(2H)-one] | 50 to 500 nM
CC1CC(c2cccc(-c3nc4cc(CN5CCO[C@H](C)C5)cc(C(F)(F)F)c4s3)c2)(c2nncn2C)C1 (stereo partly drawn) [Example 11] | 50 to 500 nM
CC1CC(c2cncc(-n3ncc4c(C(F)(F)F)cc(CN5CCC[C@H](C)C5)cc4c3=O)c2)(c2nncn2C)C1 (stereo partly drawn) [Example 54] | 50 to 500 nM
C[C@H]1CCCN(Cc2cc(C(F)(F)F)c3ncn(-c4cccc(C5(Cc6nncn6C)COC5)c4)c(=O)c3c2)C1 [Example 80, (S)-3-(3-(3-((4-methyl-4H-1,2,4-triazol-3-yl)methyl)oxetan-3-yl)phenyl)-6-((3-methylpiperidin-1-yl)methyl)-8-(trifluoromethyl)quinazolin-4(3H)-one] | 500 to 1000 nM
Cc1cc(C2(c3nncn3C)CC(C)C2)cc(-n2cnc3c(C(F)(F)F)cc(CN4CCC[C@H](C)C4)cc3c2=O)n1 (stereo partly drawn) [Example 45] | 50 to 500 nM
CC1CC(c2cccc(-c3nc4cc(CN5CCC[C@H](C)C5)cc(C(F)(F)F)c4[nH]3)c2)(c2nncn2C)C1 (stereo partly drawn) [Example 17] | 50 to 500 nM
C#Cc1cc(-n2cc3c(C(F)(F)F)cc(CN4CCC[C@H](C)C4)cc3n2)cc(C2(c3nncn3C)CC(C)C2)c1 (stereo partly drawn) [Example 51] | 50 to 500 nM
C[C@H]1CCCN(Cc2cc(C(F)(F)F)c3cnn(-c4cc([C@]5(c6nncn6C)C[C@@H](C)C5)ccn4)c(=O)c3c2)C1 (single isomer, unassigned) [Example 55] | 500 to 1000 nM
C[C@H]1CCCN(Cc2cc(C(F)(F)F)c3ncn(-c4cc([C@]5(c6nncn6C)C[C@@H](CF)C5)ccn4)c(=O)c3c2)C1 [Example 114] | 20 to 50 nM
CC1=CCCN(Cc2cc(C(F)(F)F)c3cnn(-c4cccc(C5(c6nncn6C)CC(C)C5)c4)c(=O)c3c2)C1 (stereo not drawn) [Example 21] | 50 to 500 nM
C[C@H]1CCCN(Cc2cc(C(F)(F)F)c3cn(-c4cccc(C5(c6nncn6C)CC(OC(F)F)C5)c4)nc3c2)C1 (stereo partly drawn) [Example 59] | 50 to 500 nM
C[C@H]1CCCN(Cc2cc(C(F)(F)F)c3cn(-c4cc([C@]5(c6nncn6C)C[C@@H](C)C5)ccn4)nc3c2)C1 (single isomer, unassigned) [Example 58] | 20 to 50 nM
C#C[C@H]1CCCN(Cc2cc(C(F)(F)F)c3ncn(-c4cc([C@]5(c6nncn6C)C[C@@H](C)C5)ccn4)c(=O)c3c2)C1 [Example 61] | 20 to 50 nM
Cn1cnnc1[C@]1(c2ccnc(-n3ncc4c(C(F)(F)F)cc(CN5CCC6(CC6)C5)cc4c3=O)c2)C[C@H](C)C1 [Example 36] | 20 to 50 nM
CCc1cc([C@]2(c3nncn3C)C[C@@H](C)C2)cc(-n2cnc3ccc(CN4CCC[C@H](C)C4)cc3c2=O)n1 [Example 93] | 20 to 50 nM
CC1CC(c2cncc(-n3cc4c(C(F)(F)F)cc(CN5CCC[C@H](C)C5)cc4n3)c2)(c2nncn2C)C1 (stereo partly drawn) [Example 91] | 20 to 50 nM
C[C@H]1CCCN(Cc2cc(C(F)(F)F)c3cnn(-c4cccc(C5(c6nncn6C)CC(F)(F)C5)c4)c(=O)c3c2)C1 [Example 83] | 50 to 500 nM
C[C@H]1CCCN(Cc2cc(C(F)(F)F)c3ncn(-c4cc(C5(c6nncn6C)CC6(CC6)C5)ccn4)c(=O)c3c2)C1 [Example 118] | 20 to 50 nM
C[C@H]1CCCN(Cc2cc(C(F)(F)F)c3cnn(-c4cc([C@]5(c6nncn6C)C[C@H](C)C5)ccn4)c(=O)c3c2)C1 [Example 65] | 500 to 1000 nM
Cn1cnnc1[C@]1(c2cc(OCF)nc(-n3cnc4ccc(CN5CCC[C@H](F)C5)cc4c3=O)c2)C[C@H](C)C1 [Example 98] | 50 to 500 nM
CC1CC(c2cccc(-n3ncc4c(C(F)(F)F)cc(CN5CCCCC5)cc4c3=O)c2)(c2nncn2C)C1 (stereo not drawn) [Example 22] | 50 to 500 nM
C[C@H]1CCCN(Cc2cc(C(F)(F)F)c3cn(-c4cccc(C5(c6nncn6C)CC(=O)C5)c4)nc3c2)C1 [Example 68] | 50 to 500 nM
CC1=CCCN(Cc2cc(C(F)(F)F)c3cn(-c4cccc(C5(c6nncn6C)CC(C)C5)c4)nc3c2)C1 (stereo not drawn) [Example 79] | 20 to 50 nM
CC1CC(c2ccc(F)c(-n3cc4c(C(F)(F)F)cc(CN5CCC[C@H](C)C5)cc4n3)c2)(c2nncn2C)C1 (stereo partly drawn) [Example 72] | 20 to 50 nM

Same assay, conditions: HTRF binding, CBL-B (GST-Tag), fluorescence labeled Cbl-b binding probe

Compound | IC50
C[C@H]1CCCN(Cc2cc(C(=O)Nc3cccc([C@]4(c5nncn5C)C[C@@H](C)C4)c3)c(F)c(C(F)(F)F)c2)C1 [Example 28] | < 20 nM
C=Cc1cc(C2(c3nncn3C)CC(C)C2)cc(-n2cnc3c(C(F)(F)F)cc(CN4CCC[C@H](C)C4)cc3c2=O)n1 (stereo partly drawn) [Example 49] | < 20 nM
CC1CC(c2cccc(-n3ccc4c(C(F)(F)F)cc(CN5CCC[C@H](C)C5)cc4c3=O)c2)(c2nncn2C)C1 (stereo partly drawn) [Example 23] | < 20 nM
CC(c1ccc2ncn(-c3cc([C@]4(c5nncn5C)C[C@@H](C)C4)cc(OCF)n3)c(=O)c2c1)N1CCC[C@H](C)C1 (stereo partly drawn) [Example 95] | < 20 nM
[2H]C([2H])(c1cc(C(F)(F)F)c2ncn(-c3cccc([C@]4(c5nncn5C)C[C@@H](C)C4)c3)c(=O)c2c1)N1CCC[C@H](C)C1 [Example 104] | < 20 nM
Cn1cnnc1[C@]1(c2cc(OCF)nc(-n3cnc4c(C(F)(F)F)cc(CN5CCCC(C)(F)C5)cc4c3=O)c2)C[C@H](C)C1 (stereo partly drawn) [Example 108] | < 20 nM
CC1CN(Cc2cc(C(F)(F)F)c3ncn(-c4cc([C@]5(c6nncn6C)C[C@@H](C)C5)cc(OCF)n4)c(=O)c3c2)CCC1(F)F (stereo partly drawn) [Example 109] | < 20 nM
COc1cc([C@]2(c3nncn3C)C[C@@H](C)C2)cc(-n2cnc3c(C(F)(F)F)cc(CN4CCC[C@H](C)C4)cc3c2=O)n1 [Example 115] | < 20 nM
CC1CC(c2cc(C3CC3)nc(-n3cnc4c(C(F)(F)F)cc(CN5CCC[C@H](C)C5)cc4c3=O)c2)(c2nncn2C)C1 (stereo partly drawn) [Example 47] | < 20 nM
C[C@H]1CCCN(Cc2cc(C(F)(F)F)c3cn(-c4cc(C5(Cc6nncn6C)COC5)cc5c4OCC5)nc3c2)C1 [Example 75] | < 20 nM
CC1CC(c2cccc(-n3[nH]c4c(C(F)(F)F)cc(CN5CCC[C@H](C)C5)cc4c3=O)c2)(c2nncn2C)C1 (stereo partly drawn) [Example 73] | > 1000 nM
C[C@H]1CCCN(Cc2cc(F)c3ncn(-c4cc([C@]5(c6nncn6C)C[C@@H](C)C5)cc(OCF)n4)c(=O)c3c2)C1 [Example 111] | < 20 nM
C[C@H]1CCCN(Cc2cc(C(F)(F)F)c3cnn(-c4cccc([C@@H](c5nncn5C)C5CCC5)c4)c(=O)c3c2)C1 [Example 18] | > 1000 nM
C#CC1CC(c2cccc(-n3cc4c(C(F)(F)F)cc(CN5CCC[C@H](C)C5)cc4n3)c2)(c2nncn2C)C1 (stereo partly drawn) [Example 32] | < 20 nM
CC1CC(c2cccc(-n3cnc4c(C(F)(F)F)c(CN5CCC[C@H](C)C5)[nH]c4c3=O)c2)(c2nncn2C)C1 (stereo partly drawn) [Example 63] | < 20 nM
CC1CC(c2cccc(-n3cc4c(C(F)(F)F)cc(CN5CCC[C@H](C)C5)cc4n3)c2)(c2nncn2C)C1 (stereo partly drawn) [Example 7] | < 20 nM
C=Cc1cc([C@]2(c3nncn3C)C[C@@H](C)C2)cc(-n2cnc3ccc(CN4CCC[C@H](C)C4)cc3c2=O)n1 [Example 94] | < 20 nM
C[C@H]1CCCN(Cc2cc(C(F)(F)F)c3cn(-c4cccc(C5(c6nncn6C)CC(CC#N)C5)c4)nc3c2)C1 (stereo partly drawn) [Example 90] | < 20 nM
CC1CC(c2cccc(-n3cc(C(F)(F)F)c4ccc(CN5CCC[C@H](C)C5)cc4c3=O)c2)(c2nncn2C)C1 (stereo partly drawn) [Example 12] | < 20 nM
[2H]c1nnc(C2(c3ccnc(-n4cnc5c(C(F)(F)F)cc(CN6CCC[C@H](C)C6)cc5c4=O)c3)CC(C)C2)n1C(F)F (stereo partly drawn) [Example 113] | < 20 nM
C[C@H]1CCCN(Cc2cc(C(F)(F)F)c3ncn(-c4cc([C@]5(c6nncn6C(F)F)C[C@@H](C)C5)ccn4)c(=O)c3c2)C1 [Example 48] | < 20 nM
C[C@H]1CCCN(Cc2cc(C(=O)Nc3cccc([C@@H](c4nncn4C)C4COC4)c3)cc(C(F)(F)F)c2)C1 [Example 26] | > 1000 nM
Cn1cnnc1[C@]1(c2ccnc(-n3cnc4c(C(F)(F)F)cc(CN5CCC[C@H](CF)C5)cc4c3=O)c2)C[C@H](C)C1 [Example 105] | < 20 nM
CC1CC(c2cccc(-n3cnc4c(C(F)(F)F)cc(CN5CCC[C@H](C)C5)cc4c3=O)c2)(c2nncn2C)C1 (stereo partly drawn) [Example 84] | < 20 nM
